Results as given in the CheMixHub viscosity set.

Assay: xn = mol fraction of the nth substance listed
Settings: 101 kPa

CN(C)C=O + CCCO
viscosity [mPa·s]
Settings | 293.15 K | 298.15 K | 303.15 K | 308.15 K | 313.15 K | 318.15 K | 323.15 K
x1 = 0.4512 | – | 1.232 | – | – | – | – | –
x1 = 0.5 | – | – | 0.893 | – | 0.764 | – | 0.655
x2 = 0.1001 | – | – | 0.7821 | 0.7366 | 0.6955 | 0.6569 | 0.6217
x2 = 0.1007 | 0.9529 | – | 0.8538 | – | 0.7741 | – | 0.7068
x2 = 0.2001 | – | – | 0.8111 | 0.7618 | 0.7167 | 0.6752 | 0.638
x2 = 0.2026 | 0.9902 | – | 0.8826 | – | 0.7929 | – | 0.7215
x2 = 0.2518 | 1.01 | – | 0.8911 | – | 0.7973 | – | 0.7241
x2 = 0.3 | – | – | 0.8451 | 0.7912 | 0.742 | 0.698 | 0.657
x2 = 0.3548 | 1.03 | – | 0.9064 | – | 0.8052 | – | 0.7257
x2 = 0.3967 | – | – | 0.8868 | 0.8273 | 0.7741 | 0.7256 | 0.6801
x2 = 0.5002 | – | – | 0.9267 | 0.8623 | 0.8042 | 0.7517 | 0.7022
x2 = 0.5007 | 1.109 | – | 0.9588 | – | 0.84 | – | 0.7422
x2 = 0.5008 | 1.127 | – | 0.977 | – | 0.8569 | – | 0.7593
x2 = 0.5981 | – | – | – | – | 0.8728 | – | –
x2 = 0.5982 | 1.175 | – | 1.01 | – | – | – | 0.7643
x2 = 0.6 | – | – | 0.9903 | 0.9169 | 0.8505 | 0.7912 | 0.7367
x2 = 0.6981 | 1.315 | – | 1.112 | – | 0.9521 | – | 0.8239
x2 = 0.7001 | – | – | 1.076 | 0.9904 | 0.9148 | 0.8466 | 0.784
x2 = 0.75 | 1.368 | – | 1.146 | – | 0.9688 | – | 0.8261
x2 = 0.7989 | 1.476 | – | 1.231 | – | 1.037 | – | 0.8829
x2 = 0.8001 | – | – | 1.204 | 1.1 | 1.008 | 0.9264 | 0.8521
x2 = 0.8981 | 1.734 | – | 1.412 | – | 1.164 | – | 0.9688
x2 = 0.9001 | – | – | 1.403 | 1.272 | 1.153 | 1.074 | 0.955
